Laboratory results: patent publication US8389523B2, “Substituted quinoxaline and an agrochemical composition thereof” (Kumiai Chemical Industry Co., Ltd., priority 2007, dated 2013)

What was measured:
Type in all cases: in vivo
Parameters in all cases: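 grade 0 to 5 of growth suppression where 5 is 90% or more and 0 below 10%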
[1] = tested on: Echinochloa oryzicola Vasing; test: Herbicidal effects in paddy field soil treatment (Test Example 1); settings: paddy field soil treatment; 1000 g of the active ingredient per hectare; wettable powder added dropwise on water surface; 21st day after treatment
In short: (§1)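 Application rate was 1000 g active ingredient per hectare, delivered as a diluted wettable powder onto the surface of 3 cm flood water, the day after seeds were sown in paddy soil. Effects were rated 21 days later.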

[2] = tested on: Monochoria vaginalis (Burm. f.) Presl var. plantaginea (Roxb.) Solms-Laub.; test: as above; settings: paddy field soil treatment; 1000 g of the active ingredient per hectare; wettable powder added dropwise on water surface; 21st day after treatment
In short: as §1

[3] = tested on: Scirpus juncoides Roxb. var. ohwianus. T. Koyama; test: as above; settings: paddy field soil treatment; 1000 g of the active ingredient per hectare; wettable powder added dropwise on water surface; 21st day after treatment
In short: as §1

[4] = tested on: Abutilon theophrasti medicus; test: Herbicidal effects in upland field soil treatment (Test Example 2); settings: 1000 g active ingredient per hectare, 21st day after treatment, criteria of Table 138
In short: (§2)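 A wettable powder formulation, diluted with water, is applied to the soil surface after sowing and covering seeds in upland field soil, at a rate of 1000 g active ingredient per hectare. After greenhouse growth, herbicidal activity is graded by criteria at 21 days.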

Amaranthus viridis L. [5] = test: as above; settings: 1000 g active ingredient per hectare, 21st day after treatment, criteria of Table 138
In short: as §2

[6] = tested on: Abutilon theophrasti medicus; test: Herbicidal effects in upland field foliar treatment (Test Example 3); settings: 1000 g active ingredient per hectare, 14th day after treatment, criteria of Table 138
In short: (§3)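 Dose was 1000 g of active ingredient per hectare, sprayed as a wettable powder in water at a volume of 1000 L/ha onto foliage of two-week-old greenhouse-grown plants in upland soil. Damage was assessed against rating criteria on the 14th day.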

Amaranthus viridis L. [7] = test: as above; settings: 1000 g active ingredient per hectare, 14th day after treatment, criteria of Table 138
In short: as §3

[8] = tested on: Echinochloa crus-galli (L.) P. Beauv. var. crus-galli; test: as above; settings: 1000 g active ingredient per hectare, 14th day after treatment, criteria of Table 138
In short: as §3

Compound | Herbicidal effects index, Echinochloa oryzicola Vasing [1] | Herbicidal effects index, Monochoria vaginalis (Burm. f.) Presl var. plantaginea (Roxb.) Solms-Laub. [2] | Herbicidal effects index, Scirpus juncoides Roxb. var. ohwianus. T. Koyama [3] | herbicidal effect (index) on Abutilon theophrasti medicus [4] | herbicidal effect (index) on Amaranthus viridis L. (Amaranthus viridis L. [5]) | herbicidal effect (index) on Abutilon theophrasti medicus [6] | herbicidal effect (index) on Amaranthus viridis L. (Amaranthus viridis L. [7]) | herbicidal effect (index) on Echinochloa crus-galli (L.) P. Beauv. var. crus-galli [8]
CCCn1c(=O)c(C(=O)C2=C(O)CCCC2=O)nc2ccccc21 [Compound I-12] | 5 | 5 | 5 | 5 | 5 | 5 | 5 | 4
CC(C)n1c(=O)c(C(=O)C2=C(O)CCCC2=O)nc2ccccc21 [Compound I-13] | 5 | 5 | 5 | 5 | 5 | 5 | 5 | 5
O=C1CCCC(O)=C1C(=O)c1nc2ccccc2n(C2CC2)c1=O [Compound I-14] | 4 | 5 | 5 | 5 | 5 | 5 | 5 | 4
CCCCn1c(=O)c(C(=O)C2=C(O)CCCC2=O)nc2ccccc21 [Compound I-15] | 5 | 5 | 5 | 5 | 5 | 5 | 5 | 5
C=CCn1c(=O)c(C(=O)C2=C(O)CCCC2=O)nc2ccccc21 [Compound I-30] | 5 | 5 | 5 | 5 | 5 | 5 | 5 | 4
CCSCn1c(=O)c(C(=O)C2=C(O)CCCC2=O)nc2ccccc21 [Compound I-72] | 5 | 5 | 5 | 5 | 5 | 5 | 5 | 5
CCS(=O)(=O)Cn1c(=O)c(C(=O)C2=C(O)CCCC2=O)nc2ccccc21 [Compound I-82] | 5 | 5 | 5 | 5 | 5 | 5 | 5 | 4
COCCn1c(=O)c(C(=O)C2=C(O)CCCC2=O)nc2ccccc21 [Compound I-88] | 5 | 5 | 5 | 5 | 5 | 5 | 5 | 5
COCC(C)n1c(=O)c(C(=O)C2=C(O)CCCC2=O)nc2ccccc21 (stereo not drawn) [Compound I-90] | 5 | 5 | 5 | 5 | 5 | 5 | 5 | 5
COCCCn1c(=O)c(C(=O)C2=C(O)CCCC2=O)nc2ccccc21 [Compound I-93] | 5 | 5 | 5 | 4 | 5 | 5 | 5 | 5
CC(=O)Cn1c(=O)c(C(=O)C2=C(O)CCCC2=O)nc2ccccc21 [Compound I-94] | 5 | 5 | 5 | 5 | 4 | 5 | 5 | 5
CC(C)(C)OC(=O)Cn1c(=O)c(C(=O)C2=C(O)CCCC2=O)nc2ccccc21 [Compound I-99] | 5 | 5 | 5 | 5 | 5 | 5 | 5 | 5
N#CCn1c(=O)c(C(=O)C2=C(O)CCCC2=O)nc2ccccc21 [Compound I-102] | 5 | 4 | 5 | 5 | 5 | 5 | 5 | 5
N#CCCn1c(=O)c(C(=O)C2=C(O)CCCC2=O)nc2ccccc21 [Compound I-103] | 5 | 5 | 5 | 5 | 5 | 5 | 5 | 5
O=C1CCCC(O)=C1C(=O)c1nc2ccccc2n(Cc2ccccc2)c1=O [Compound I-107] | 4 | 5 | 5 | 5 | 5 | 5 | 5 | 4
O=C1CCCC(O)=C1C(=O)c1nc2ccccc2n(CC(F)(F)F)c1=O [I-40] | 5 | 5 | 5 | 5 | 5 | 5 | 5 | 5
COCn1c(=O)c(C(=O)C2=C(O)CCCC2=O)nc2ccccc21 [I-49] | 5 | 5 | 5 | 5 | 5 | 5 | 5 | 4
CCOCn1c(=O)c(C(=O)C2=C(O)CCCC2=O)nc2ccccc21 [I-50] | 5 | 5 | 5 | 5 | 5 | 5 | 5 | 4
